Measurements as given in ChEMBL document CHEMBL5506073, “Discovery of Novel Ortho-Aminophenol Derivatives Targeting Lipid Peroxidation with Potent Antiferroptotic Activities” (J Med Chem, 2024).
Activity calls are given as the source filed them. The calls are words filed in the database; no cut-off is given here.

Columns and labels:
HT-1080 [1] = assay: Inhibition of RSL3-induced ferroptosis in human HT-1080 cells assessed as cell viability upto 10 uM incubated for 24 hrs by CCK8 assay; format: functional, cell-based
HT-1080 [2] = assay: Effect on lipid metabolism in human HT-1080 cells assessed as change in ACSL4 mRNA level by qRT-PCR analysis; format: functional, cell-based
HT-1080 [3] = assay: Inhibition of FIN56-induced ferroptosis in human HT-1080 cells assessed as cell viability at 200 nM incubated for 24 hrs by CCK8 assay; format: functional, cell-based
HT-1080 [4] = assay: Effect on glutathione metabolic pathway in human HT-1080 cells assessed as change in SLC7A11 mRNA level by qRT-PCR analysis; format: functional, cell-based
HT-1080 [5] = assay: Effect on iron metabolism in human HT-1080 cells assessed as change in TFRC mRNA level by qRT-PCR analysis; format: functional, cell-based
HTR-8/SVneo [6] = assay: Inhibition of RSL3-induced ferroptosis in human HTR-8/SVneo cells assessed as cell viability at 200 nM incubated for 24 hrs by CCK8 assay; format: functional, cell-based
KHOS/NP [7] = assay: Inhibition of FIN56-induced ferroptosis in human KHOS/NP cells assessed as cell viability at 200 nM incubated for 24 hrs by CCK8 assay; format: functional, cell-based
Mus musculus [8] = assay: Protection against APAP-induced acute liver injury in overnight fasted C57BL/6 mouse model assessed as reduction in necrotic areas of liver at 10 mg/kg, ip administered 1 hr prior to APAP treatment measured after 12 hrs post-APAP treatment under continuous fasting condition by H and E staining based analysis; format: functional, organism-based; conditions: time 13.0 hrs
HT-1080 [9] = assay: Effect on glutathione metabolic pathway in human HT-1080 cells assessed as change in GPX4 mRNA level by qRT-PCR analysis; format: functional, cell-based
HK-2 [10] = assay: Inhibition of FIN56-induced ferroptosis in human HK-2 cells assessed as cell viability at 200 nM incubated for 24 hrs by CCK8 assay; format: functional, cell-based
HT-1080 [11] = assay: Inhibition of RSL3-induced lipid peroxidation in human HT-1080 cells assessed as reduction in MDA adduct accumulation by ELISA; format: functional, cell-based
SW480 [12] = assay: Inhibition of FIN56-induced ferroptosis in human SW480 cells assessed as cell viability at 200 nM incubated for 24 hrs by CCK8 assay; format: functional, cell-based
HT-1080 [13] = assay: Inhibition of ferroptosis in human HT-1080 cells assessed as reversal of RSL3-induced cell shrinkage; format: functional, cell-based
Mus musculus [14] = assay: Protection against APAP-induced acute liver injury in overnight fasted C57BL/6 mouse model assessed as normal pathology of liver at 10 mg/kg, ip administered 1 hr prior to APAP treatment measured after 12 hrs post-APAP treatment under continuous fasting condition by H and E staining based analysis; format: functional, organism-based; conditions: time 13.0 hrs
Mus musculus [15] = assay: Protection against kidney ischemia-reperfusion injury in C57BL/6 mouse model assessed as decrease in KIM-1 level in kidney at 10 mg/kg, ip administered twice 1 hr prior to ischemia onset measured after 24 hrs post-ischemia by IHC analysis; format: functional, organism-based; conditions: time 25.0 hrs
Mus musculus [16] = assay: Protection against APAP-induced acute liver injury in overnight fasted C57BL/6 mouse model assessed as reversal of native liver architecture at 10 mg/kg, ip administered 1 hr prior to APAP treatment measured after 12 hrs post-APAP treatment under continuous fasting condition by H and E staining based analysis; format: functional, organism-based; conditions: time 13.0 hrs
HT-1080 [17] = assay: Inhibition of RSL3-induced ferroptosis in human HT-1080 cells assessed as cell viability at 200 nM incubated for 24 hrs by CCK8 assay; format: functional, cell-based
Mus musculus [18] = assay: Protection against APAP-induced acute liver injury in overnight fasted C57BL/6 mouse model assessed as reduction in 4-HNE formation in liver at 10 mg/kg, ip administered 1 hr prior to APAP treatment measured after 12 hrs post-APAP treatment under continuous fasting condition by IHC analysis; format: functional, organism-based; conditions: time 13.0 hrs
Mus musculus [19] = assay: Protection against kidney ischemia-reperfusion injury in C57BL/6 mouse model assessed as decrease in BUN level at 10 mg/kg, ip administered twice 1 hr prior to ischemia onset measured after 24 hrs post-ischemia; format: functional, organism-based; conditions: time 25.0 hrs
HKC [20] = assay: Inhibition of RSL3-induced ferroptosis in human HKC cells assessed as cell viability at 200 nM incubated for 24 hrs by CCK8 assay; format: functional, cell-based
HKC [21] = assay: Inhibition of FIN56-induced ferroptosis in human HKC cells assessed as cell viability at 200 nM incubated for 24 hrs by CCK8 assay; format: functional, cell-based
HT-1080 [22] = assay: Effect on iron metabolism in human HT-1080 cells assessed as change in FTH1 mRNA level by qRT-PCR analysis; format: functional, cell-based
Mus musculus [23] = assay: Protection against kidney ischemia-reperfusion injury in C57BL/6 mouse model assessed as decrease in brush edges loss in kidney at 10 mg/kg, ip administered twice 1 hr prior to ischemia onset measured after 24 hrs post-ischemia by H and E staining based analysis; format: functional, organism-based; conditions: time 25.0 hrs
HTR-8/SVneo [24] = assay: Inhibition of FIN56-induced ferroptosis in human HTR-8/SVneo cells assessed as cell viability at 200 nM incubated for 24 hrs by CCK8 assay; format: functional, cell-based
HT-1080 [25] = assay: Inhibition of ferroptosis in human HT-1080 cells assessed as reversal of RSL3-induced swelling; format: functional, cell-based
Mus musculus [26] = assay: Protection against kidney ischemia-reperfusion injury in C57BL/6 mouse model assessed as decrease in renal tubule dilation at 10 mg/kg, ip administered twice 1 hr prior to ischemia onset measured after 24 hrs post-ischemia by H and E staining based analysis; format: functional, organism-based; conditions: time 25.0 hrs
HT-1080 [27] = assay: Inhibition of RSL3-induced lipid peroxidation in human HT-1080 cells assessed as reduction in green fluorescence by C11-BODIPY581/591 probe based analysis; format: functional, cell-based
HT-1080 [28] = assay: Inhibition of ferroptosis in human HT-1080 cells assessed as reversal of RSL3-induced membrane rupture; format: functional, cell-based
Mus musculus [29] = assay: Protection against APAP-induced acute liver injury in overnight fasted C57BL/6 mouse model assessed as decrease in plasma ALT level at 10 mg/kg, ip administered 1 hr prior to APAP treatment measured after 12 hrs post-APAP treatment under continuous fasting condition; format: functional, organism-based; conditions: time 13.0 hrs
HT-1080 [30] = assay: Inhibition of ferroptosis in human HT-1080 cells assessed as reversal of RSL3-induced normal morphological loss; format: functional, cell-based
Mus musculus [31] = assay: Protection against kidney ischemia-reperfusion injury in C57BL/6 mouse model assessed as decrease in cytoplasmic vacuoles in kidney at 10 mg/kg, ip administered twice 1 hr prior to ischemia onset measured after 24 hrs post-ischemia by H and E staining based analysis; format: functional, organism-based; conditions: time 25.0 hrs
HT-1080 [32] = assay: Inhibition of RSL3-induced ferroptosis in human HT-1080 cells assessed as cell viability incubated for 24 hrs by CCK8 assay; format: functional, cell-based; conditions: HT-1080, 24 h
HT-1080 [33] = assay: Effect on lipid metabolism in human HT-1080 cells assessed as change in ALOX15 mRNA level by qRT-PCR analysis; format: functional, cell-based
KHOS/NP [34] = assay: Inhibition of RSL3-induced ferroptosis in human KHOS/NP cells assessed as cell viability at 200 nM incubated for 24 hrs by CCK8 assay; format: functional, cell-based
Mus musculus [35] = assay: Protection against APAP-induced acute liver injury in overnight fasted C57BL/6 mouse model assessed as decrease in plasma AST level at 10 mg/kg, ip administered 1 hr prior to APAP treatment measured after 12 hrs post-APAP treatment under continuous fasting condition; format: functional, organism-based; conditions: time 13.0 hrs
[36] = Antioxidant activity assessed as DPPH radical scavenging activity at 20 uM incubated for 30 mins by absorbance based assay; format: functional
Mus musculus [37] = assay: Protection against kidney ischemia-reperfusion injury in C57BL/6 mouse model assessed as decrease in serum creatinine level at 10 mg/kg, ip administered twice 1 hr prior to ischemia onset measured after 24 hrs post-ischemia; format: functional, organism-based; conditions: time 25.0 hrs
HK-2 [38] = assay: Inhibition of RSL3-induced ferroptosis in human HK-2 cells assessed as cell viability at 200 nM incubated for 24 hrs by CCK8 assay; format: functional, cell-based
HT-1080 [39] = assay: Effect on lipid metabolism in human HT-1080 cells assessed as change in COX2 mRNA level by qRT-PCR analysis; format: functional, cell-based
SW480 [40] = assay: Inhibition of RSL3-induced ferroptosis in human SW480 cells assessed as cell viability at 200 nM incubated for 24 hrs by CCK8 assay; format: functional, cell-based
HT-1080 [41] = assay: Effect on iron metabolism in human HT-1080 cells assessed as change in DMT1 mRNA level by qRT-PCR analysis; format: functional, cell-based
HT-1080 [42] = assay: Inhibition of RSL3-induced ferroptosis in human HT-1080 cells assessed as cell viability at 0.5 uM incubated for 24 hrs by CCK8 assay; format: functional, cell-based
[43] = Antioxidant activity assessed as DPPH radical scavenging activity at 10 uM incubated for 30 mins by absorbance based assay; format: functional

SMILES: Nc1c(O)cccc1C(=O)O
- inhibition (HT-1080 [1]): inactive

SMILES: COc1ccc(/C=N/NC(=O)c2cccc(O)c2N)cc1
- Activity (HT-1080 [2]): inactive
- inhibition (HT-1080 [3]): Active
- Activity (HT-1080 [4]): inactive
- Activity (HT-1080 [5]): inactive
- inhibition (HTR-8/SVneo [6]): Active
- inhibition (KHOS/NP [7]): Active
- Activity (Mus musculus [8]): Active
- Activity (HT-1080 [9]): inactive
- inhibition (HK-2 [10]): Active
- inhibition (HT-1080 [11]): Active
- inhibition (SW480 [12]): Active
- inhibition (HT-1080 [13]): Active
- Activity (Mus musculus [14]): Active
- Activity (Mus musculus [15]): Active
- Activity (Mus musculus [16]): Active
- inhibition (HT-1080 [17]): Active
- Activity (Mus musculus [18]): Active
- Activity (Mus musculus [19]): Active
- inhibition (HKC [20]): Active
- inhibition (HKC [21]): Active
- Activity (HT-1080 [22]): inactive
- Activity (Mus musculus [23]): Active
- inhibition (HTR-8/SVneo [24]): Active
- inhibition (HT-1080 [25]): Active
- Activity (Mus musculus [26]): Active
- inhibition (HT-1080 [27]): Active
- inhibition (HT-1080 [28]): Active
- Activity (Mus musculus [29]): Active
- inhibition (HT-1080 [30]): Active
- Activity (Mus musculus [31]): Active
- EC50 (HT-1080 [32]): 40.5 nM
- Activity (HT-1080 [33]): inactive
- inhibition (KHOS/NP [34]): Active
- Activity (Mus musculus [35]): Active
- Activity [36]: Active
- Activity (Mus musculus [37]): Active
- inhibition (HK-2 [38]): Active
- Activity (HT-1080 [39]): inactive
- inhibition (SW480 [40]): Active
- Activity (HT-1080 [41]): inactive

SMILES: CC(C)COC(=O)c1cccc(O)c1N
- Activity (HT-1080 [2]): inactive
- inhibition (HT-1080 [3]): Active
- Activity (HT-1080 [4]): inactive
- Activity (HT-1080 [5]): inactive
- inhibition (HTR-8/SVneo [6]): Active
- inhibition (KHOS/NP [7]): Active
- Activity (Mus musculus [8]): Active
- Activity (HT-1080 [9]): inactive
- inhibition (HK-2 [10]): Active
- inhibition (HT-1080 [11]): Active
- inhibition (SW480 [12]): Active
- inhibition (HT-1080 [13]): Active
- Activity (Mus musculus [14]): Active
- Activity (Mus musculus [15]): Active
- Activity (Mus musculus [16]): Active
- inhibition (HT-1080 [17]): Active
- Activity (Mus musculus [18]): Active
- Activity (Mus musculus [19]): Active
- inhibition (HKC [20]): Active
- inhibition (HKC [21]): Active
- Activity (HT-1080 [22]): inactive
- Activity (Mus musculus [23]): Active
- inhibition (HTR-8/SVneo [24]): Active
- inhibition (HT-1080 [25]): Active
- Activity (Mus musculus [26]): Active
- inhibition (HT-1080 [27]): Active
- inhibition (HT-1080 [28]): Active
- inhibition (HT-1080 [42]): Active
- Activity (Mus musculus [29]): Active
- inhibition (HT-1080 [30]): Active
- Activity (Mus musculus [31]): Active
- EC50 (HT-1080 [32]): 158 nM
- Activity (HT-1080 [33]): inactive
- inhibition (KHOS/NP [34]): Active
- Activity (Mus musculus [35]): Active
- Activity [36]: Active
- Activity [43]: Active
- Activity (Mus musculus [37]): Active
- inhibition (HK-2 [38]): Active
- Activity (HT-1080 [39]): inactive
- inhibition (SW480 [40]): Active
- Activity (HT-1080 [41]): inactive
